In one assay the test system is IL-4 production. Briefly: Test 1: inhibition of IL-4 production in human T-cell strain ATL-16T(-) stimulated with PMA (R&D Systems EIA). The conditions noted are these: ATL-16T(-) 1×10^6 cells/0.5 ml/well, 20 nM PMA, 48 hours, read-out: Inhibition rate of IL-4 production; for inhibition at 10 µM: 10^-5 M; for inhibition at 1 µM: 10^-6 M; for inhibition at 0.1 µM: 10^-7 M; for inhibition at 0.01 µM: 10^-8 M. Type of assay: cell-based. As to the method: Test 1: Test on the inhibition of IL-4 production
Into individual wells of a 48-well microplate, the human T-cell strain ATL-16T(-) was poured at a concentration of 1×10^6 cells/0.5 ml/well (n=3), followed by the addition of a stimulator (20 nM of PMA) and a medicament at the same time. The resulting mixture was incubated in 5% CO2 at 37° C. for 48 hours. After incubation, 100 μl of the supernatant were collected and subjected to measurement by a human IL-4 EIA kit (R&D SYSTEMS, INC.). The inhibition rate was calculated according to the following formula. [formula]

The subject of another assay is IL-5 production. Briefly: Test 3: inhibition of IL-5 production in human PBMC stimulated with ConA. Type of assay: cell-based. Particulars: 10^-6 M, 10 μg/ml ConA, 48 hours, read-out: Inhibition rate of IL-5 production. The protocol:
Test 3: Test on the inhibition of IL-5 production
The peripheral blood was collected from a normal volunteer and peripheral blood mononuclear cells (PBMC) of the human peripheral blood were separated therefrom by the specific gravity centrifugation method. They were suspended in an AIM-V medium and their cell count was adjusted. To individual wells of a 96-well incubation plate, 1×10^6 cells/ml of PBMC were poured, followed by the addition of a stimulator (10 μg/ml of ConA) and a medicament. The resulting mixture was incubated in 5% CO2 at 37° C. for 48 hours. After incubation, 50 μl of the supernatant were collected and subjected to measurement by a human IL-5 EIA kit (BIO SOURCE, INC.). The inhibition rate was calculated according to the following formula. [formula]

Counter-ions that a name gives are not always drawn.

Drawing on patent US6046218A, “Pyridine derivative and medicament containing the same as an effective ingredient” (SS Pharmaceutical Co., Ltd., priority 1996, dated 2000), this text covers inhibition for 24 molecules.

By inhibition is commonly meant the change of the read-out against control, counted positive when it falls.

Consider `COc1cnc(/C=C/C(O)c2ccccc2)cc1OC` (centres unmarked) [Ex. 23, 4,5-dimethoxy-2-(3-hydroxy-3-phenyl-1-propenyl)pyridine], for which, in the assay with IL-4 production, the inhibition at 10 µM stood at 88%, the inhibition at 1 µM stood at 80.7%, the inhibition at 0.1 µM came to 64.9% and the inhibition at 0.01 µM was 64.7%. For the same molecule, in the assay with IL-5 production, the inhibition at 1 µM turned out to be 96.3%.

On to `COc1cnc(/C=C/C(=O)c2ccccc2)cc1OCC(=O)c1ccccc1` [Ex. 47, 5-Methoxy-4-(2-oxo-2-phenylethoxy)-2-(3-oxo-3-phenyl-1-propenyl)pyridine], for which, in the assay with IL-4 production, the inhibition at 10 µM is 113%, the inhibition at 1 µM is 89.6%, the inhibition at 0.1 µM is 74.1% and the inhibition at 0.01 µM came to 58.9%. The inhibition at 1 µM in the assay on IL-5 production was 67.2%.

Turning to `COCOc1cc(/C=C/C(=O)c2ccccc2)ncc1OC` [Ex. 4, 5-Methoxy-4-methoxymethyloxy-2-(3-oxo-3-phenyl-1-propenyl)pyridine], in the assay with IL-4 production, the inhibition at 10 µM turned out to be 86.2%, the inhibition at 1 µM was determined as 75.2%, the inhibition at 0.1 µM worked out at 67.9% and the inhibition at 0.01 µM was 57.4%. Besides, the inhibition at 1 µM with IL-5 production amounted to 60.2%.

With `CCCCCC(=O)/C=C/c1cc(OC2CCCC2)c(OC)cn1` [Ex. 9, 4-Cyclopentyloxy-5-methoxy-2-(3-oxo-1-octenyl)pyridine], in the assay on IL-4 production, the inhibition at 10 µM amounted to 94.6%, the inhibition at 1 µM turned out to be 92.7%, the inhibition at 0.1 µM came out at 86.5% and the inhibition at 0.01 µM was 70.7%. Besides, the inhibition at 1 µM with IL-5 production is 82.5%.

`COCCOCOc1cc(/C=C/C(=O)c2ccccc2)ncc1OC` [Ex. 48, 5-Methoxy-4-methoxyethoxymethoxy-2-(3-oxo-3-phenyl-1-propenyl)pyridine]: in the assay with IL-4 production, the inhibition at 10 µM was 111%, the inhibition at 1 µM came to 74.7%, the inhibition at 0.1 µM turned out to be 50.1% and the inhibition at 0.01 µM is 7.6%. Besides, the inhibition at 1 µM with IL-5 production was 62.2%.

For the molecule `CCOC(=O)COc1cc(/C=C/C(=O)c2ccccc2)ncc1OC` [Ex. 45], in the assay on IL-4 production, the inhibition at 10 µM amounted to 89.5%, the inhibition at 1 µM was found to be 86.4%, the inhibition at 0.1 µM was 80.1% and the inhibition at 0.01 µM worked out at 74%. For the same molecule, the inhibition at 1 µM in the assay with IL-5 production was found to be 64.3%.

On to `COc1cnc(/C=C/C(=O)c2ccccc2)cc1OC(=O)c1ccccc1` [Ex. 43, 4-benzoyloxy-5-methoxy-2-(3-oxo-3-phenyl-1-propenyl)pyridine], for which, in the assay on IL-4 production, the inhibition at 10 µM came to 80.8%, the inhibition at 1 µM came to 72.6%, the inhibition at 0.1 µM was 70.3% and the inhibition at 0.01 µM turned out to be 35.5%. The inhibition at 1 µM in the assay on IL-5 production came to 61.4%.

Consider `COc1cc(/C=C/C(=O)C2CCCC2)ncc1OCCCCCC(=O)O` [Ex. 38, 6-[2-(3-Cyclopentyl-3-oxo-1-propenyl)-4-methoxy-5-pyridyloxy]hexanoic acid hydrochloride], for which, in the assay with IL-4 production, the inhibition at 10 µM is 76.3%, the inhibition at 1 µM stood at 68.9%, the inhibition at 0.1 µM was found to be 59% and the inhibition at 0.01 µM was found to be 42.4%. Moreover, the inhibition at 1 µM with IL-5 production came to 88.7%.

With `CCCCCC(=O)/C=C/c1cc(OCCCC(=O)OCC)c(OC)cn1` [Ex. 13, Ethyl 4-[5-methoxy-2-(3-oxo-1-octenyl)-4-pyridyloxy]butanoate], in the assay on IL-4 production, the inhibition at 10 µM came out at 87.9%, the inhibition at 1 µM was 77%, the inhibition at 0.1 µM is 68.7% and the inhibition at 0.01 µM turned out to be 62.3%. Besides, in the assay with IL-5 production, the inhibition at 1 µM was found to be 80.9%.

With `COC(=O)CCCOc1cnc(/C=C/C(=O)C2CCCC2)cc1OC` [Ex. 18, Methyl 4-[4-methoxy-2-(3-cyclopentyl-3-oxo-1-propenyl)-5-pyridyloxy]butanoate], in the assay with IL-4 production, the inhibition at 10 µM is 88.2%, the inhibition at 1 µM was 78.3%, the inhibition at 0.1 µM was determined as 67.8% and the inhibition at 0.01 µM worked out at 34.8%. The inhibition at 1 µM in the assay with IL-5 production turned out to be 96.9%.

For `COCOc1cnc(/C=C/C(=O)c2ccccc2)cc1OCOC` [Ex. 5, 4,5-Bis(methoxymethyloxy)-2-(3-oxo-3-phenyl-1-propenyl)pyridine], in the assay with IL-4 production, the inhibition at 10 µM is 104%, the inhibition at 1 µM came to 90%, the inhibition at 0.1 µM stood at 74% and the inhibition at 0.01 µM came out at 50.9%. Further, the inhibition at 1 µM in the assay with IL-5 production came to 89.3%.

As for `COc1cc(/C=C/C(O)C2CCCC2)ncc1OCCCCCC(=O)O` (centres unmarked) [Ex. 36, 6-[2-(3-Cyclopentyl-3-hydroxy-1-propenyl)-4-methoxy-5-pyridyloxy]hexanoic acid hydrochloride], in the assay with IL-4 production, the inhibition at 10 µM was 85.1%, the inhibition at 1 µM stood at 78.9%, the inhibition at 0.1 µM was 68.6% and the inhibition at 0.01 µM worked out at 37.6%. Also, the inhibition at 1 µM with IL-5 production is 86.5%.

With `COc1cnc(/C=C/C(=O)c2ccccc2)cc1OC1CCCC1` [Ex. 2, 4-Cyclopentyloxy-5-methoxy-2-(3-oxo-3-phenyl-1-propenyl)pyridine], in the assay on IL-4 production, the inhibition at 10 µM is 113%, the inhibition at 1 µM is 103%, the inhibition at 0.1 µM came to 93.5% and the inhibition at 0.01 µM came to 82.8%. For the same molecule, the inhibition at 1 µM with IL-5 production came out at 93.4%.

For `COC(=O)CCCCCOc1cnc(/C=C/C(O)C2CCCC2)cc1OC` (centres unmarked) [Ex. 31, Methyl 6-[2-(3-cyclopentyl-3-hydroxy-1-propenyl)-4-methoxy5-pyridyloxy]hexanoate], in the assay on IL-4 production, the inhibition at 10 µM was determined as 81.2%, the inhibition at 1 µM stood at 69.5%, the inhibition at 0.1 µM turned out to be 58% and the inhibition at 0.01 µM is 40.4%. For the same molecule, the inhibition at 1 µM in the assay on IL-5 production came to 71.6%.

With `COc1cc(/C=C/C(=O)c2ccccc2)ncc1O` [Ex. 21, 5-hydroxy-4-methoxy-2-(3-oxo-3-phenyl-1-propenyl)pyridine], in the assay with IL-4 production, the inhibition at 10 µM turned out to be 97.3%, the inhibition at 1 µM is 90.3%, the inhibition at 0.1 µM stood at 80.1% and the inhibition at 0.01 µM was determined as 72.5%. The inhibition at 1 µM in the assay with IL-5 production stood at 67.3%.

In the case of `CCCCCC(=O)/C=C/c1cc(O)c(O)cn1` [Ex. 22, 4,5-Dihydroxy-2-(3-oxo-1-octenyl)pyridine], in the assay with IL-4 production, the inhibition at 10 µM was 111%, the inhibition at 1 µM amounted to 75.5%, the inhibition at 0.1 µM stood at 67.6% and the inhibition at 0.01 µM was 50%. Also, the inhibition at 1 µM with IL-5 production was determined as 80.9%.

`COc1cc(/C=C/C(=O)c2ccccc2)ncc1OC(C)=O` [Ex. 6, 5-Acetoxy-4-methoxy-2-(3-oxo-3-phenyl-1-propenyl)pyridine]: in the assay on IL-4 production, the inhibition at 10 µM was 102%, the inhibition at 1 µM stood at 86.1%, the inhibition at 0.1 µM worked out at 75.2% and the inhibition at 0.01 µM stood at 58.8%. Moreover, the inhibition at 1 µM in the assay with IL-5 production amounted to 67%.

For `COC(=O)CCCCCOc1cnc(/C=C/C(=O)C2CCCC2)cc1OC` [Ex. 17, Methyl 6-[4-methoxy-2-(3-cyclopentyl-3-oxo-1-propenyl)-5-pyridyloxy]hexanoate], in the assay with IL-4 production, the inhibition at 10 µM is 111%, the inhibition at 1 µM was 92.8%, the inhibition at 0.1 µM came to 88.6% and the inhibition at 0.01 µM was determined as 74.7%. Besides, in the assay with IL-5 production, the inhibition at 1 µM was 84.3%.

Take `COc1cnc(/C=C/C(O)c2ccccc2)cc1O` (centres unmarked) [Ex. 24, 4-Hydroxy-2-(3-hydroxy-3-phenyl-1-propenyl)-5-methoxypyridine]: in the assay with IL-4 production, the inhibition at 10 µM came out at 92.2%, the inhibition at 1 µM was found to be 79.5%, the inhibition at 0.1 µM is 69.5% and the inhibition at 0.01 µM stood at 56%. Also, the inhibition at 1 µM with IL-5 production is 80%.

Take `COc1cnc(/C=C/C(=O)c2ccccc2)cc1OCc1ccccc1` [Ex. 3, 4-Benzyloxy-5-methoxy-2-(3-oxo-3-phenyl-1-propenyl)pyridine]: in the assay with IL-4 production, the inhibition at 10 µM came out at 98.9%, the inhibition at 1 µM was 81.1%, the inhibition at 0.1 µM was determined as 75.9% and the inhibition at 0.01 µM came to 60%. In the assay with IL-5 production, the inhibition at 1 µM came to 65.8%.

Take `Oc1cnc(/C=C/C(O)c2ccccc2)cc1O` (centres unmarked) [Ex. 25, 4,5-Dihydroxy-2-(3-hydroxy-3-phenyl-1-propenyl)pyridine]: the inhibition at 1 µM in the assay with IL-5 production came out at 97.5%.

`COc1cnc(/C=C/C(=O)N2CCCCC2)cc1OC` [Ex. 107, 4,5-dimethoxy-2-(3-oxo-3-piperidino-1-propenyl)pyridine hydrochloride]: in the assay with IL-5 production, the inhibition at 1 µM worked out at 71.9%.

As to `CCOC(=O)CCCCCOc1cc(/C=C/C(=O)c2ccccn2)ncc1OC` [Ex. 69, Ethyl 6-[5-methoxy-2-(3-oxo-3-(2-pyridyl)-1-propenyl]-4-pyridyloxy]hexanoate], the inhibition at 1 µM in the assay with IL-5 production is 73.1%.

Regarding `COc1cnc(/C=C/C(=O)c2cc(OC)c(OC)c(OC)c2)cc1OCCCCCCO` [Ex. 102, 6-[5-Methoxy-2-(3-oxo-3-(3,4,5-trimethoxyphenyl)-1-propenyl)-4-pyridyloxy]hexyl alcohol hydrochloride], the inhibition at 1 µM with IL-5 production worked out at 97.3%.
